Experimental data: patent publication US4605744A, “Imidazole derivatives” (Hoffmann-La Roche Inc., priority 1985, dated 1986)
Counter-ions that a name gives are not always drawn.

Columns and labels:
P. aeruginosa 6799 = assay: In vivo antibacterial activity (PD50); conditions: Pseudomonas aeruginosa, 6799, sc, sc; challenge 71 LD50s; 2 treatments; Table 11; read-out: PD50
S. pyogenes 4 [1] = assay: In vivo antibacterial activity (PD50); conditions: Streptococcus pyogenes, 4, sc, read-out: PD50
P. aeruginosa 6720 = assay: In vivo antibacterial activity (PD50); conditions: Pseudomonas aeruginosa, 6720, sc, challenge 35 LD50s, 2 treatments, Table 11
E. coli 257 [2] = assay: In vitro antibacterial activity (MIC, Mueller-Hinton broth); assay type: cell-based; conditions: Escherichia coli, 257, E. coli 257; read-out: MIC
In short: (§1)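 Mueller-Hinton broth carries the compound at 128–0.008 μg/ml; diluted drug may be used fresh or stored frozen at -10° to -70° C before use. Wells are seeded with a 10^-2 dilution of overnight culture and incubated overnight at 37° C.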

S. aureus Smith = assay: In vivo antibacterial activity (PD50); conditions: Staphylococcus aureus, sc, challenge 70 LD50s, 2 treatments, Table 11
S. faecalis C1 = assay: In vivo antibacterial activity (PD50); conditions: Enterococcus faecalis, C1; sc; challenge 10 LD50s; 1 treatment; Table 11
E. coli 257 [3] = assay: In vivo antibacterial activity (PD50); conditions: Escherichia coli, 257, sc, challenge >10^4 LD50s, 1 treatment, Table 11
K. pneumoniae HE7 = assay: In vivo antibacterial activity (PD50); conditions: Klebsiella pneumoniae, HE7, sc, challenge 1000 LD50s, 2 treatments, Table 11
S. pneumoniae 6302 = assay: In vivo antibacterial activity (PD50); conditions: Streptococcus pneumoniae, 6302, sc, challenge 1000 LD50s, 1 treatment, Table 11
S. marcescens SM = assay: In vivo antibacterial activity (PD50); conditions: Serratia marcescens; sc; challenge 489 LD50s; 2 treatments; Table 11
K. pneumoniae 503-990A = assay: In vivo activity alone and in combination (PD50, FIC); conditions: Klebsiella pneumoniae, 503990A, sc, alone
Protocol: (§2) In Tables 9-14, the results of the in vivo activity against certain microorganisms of compounds I, M and N as given. […] The results in these Tables and the PD50 's were determined by the procedure set forth on page 160 in Beskid et al., Antimicrobial Agents and Chemotherapy, Vol. 20, No. 2 pp. 159-167 (Aug. 1981) for "in vivo studies".
(§3) In the Tables, the fractional inhibitory concentration index (FIC) for synergistic combination of a compound of this invention (X) with known antibiotic compound (Y) is determined by the following formula:
(§4) FIC=(PD50 (X combination)/PD50 (X alone)+(PD50 (Y
(§5) combination)/PD50 (Y alone)
(§6) An FIC of ≤0.60 is indicative of synergy. The synergy rating in the Tables is as follows:
(§7) In the combination, the parts are parts by weight, i.e. 10 to 1 is 10 parts by weight to 1 part by weight.

K. pneumoniae R2296 = assay: as above; conditions: Klebsiella pneumoniae, sc, alone
Protocol: as §2, §3, §4, §5, §6, §7

P. aeruginosa 8710 [4] = assay: In vivo antibacterial activity (PD50); conditions: Pseudomonas aeruginosa, 8710, sc, challenge >10^4 LD50s, 2 treatments, Table 11, read-out: PD50
E. coli 387-1 = assay: In vitro antibacterial activity (MIC); assay type: cell-based; conditions: Escherichia coli, 3871, E. coli 387-1; read-out: MIC
In short: as §1

S. aureus 1059B = assay: In vitro antibacterial activity (MIC); assay type: cell-based; conditions: Staphylococcus aureus, read-out: MIC
In short: as §1

E. coli 503-455 = assay: In vitro antibacterial activity (MIC); assay type: cell-based; conditions: Escherichia coli, 503455
In short: as §1

S. marcescens S1 = assay: In vitro antibacterial activity (MIC); assay type: cell-based; conditions: Serratia marcescens, S1
In short: as §1

S. marcescens S4 = assay: In vitro antibacterial activity (MIC); assay type: cell-based; conditions: Serratia marcescens, S4, S. marcescens S4; read-out: MIC
In short: as §1

S. schottmuelleri = assay: In vitro antibacterial activity (MIC); assay type: cell-based; conditions: read-out: MIC
In short: as §1

K. pneumoniae 4964 = assay: In vitro antibacterial activity (MIC); assay type: cell-based; conditions: Klebsiella pneumoniae, 4964
In short: as §1

E. aerogenes 8 = assay: In vitro antibacterial activity (MIC); assay type: cell-based; conditions: Klebsiella aerogenes; E. aerogenes 8; read-out: MIC
In short: as §1

P. aeruginosa 8710 [5] = assay: In vitro antibacterial activity (MIC); assay type: cell-based; conditions: Pseudomonas aeruginosa; P. aeruginosa 8710; read-out: MIC
In short: as §1

P. mirabilis 190 = assay: In vitro antibacterial activity (MIC); assay type: cell-based; conditions: Proteus mirabilis, 190, P. mirabilis 190; read-out: MIC
In short: as §1

P. mirabilis 90 = assay: In vitro antibacterial activity (MIC); assay type: cell-based; conditions: Proteus mirabilis, 90, P. mirabilis 90; read-out: MIC
In short: as §1

P. aeruginosa 503-820 = assay: In vitro antibacterial activity (MIC); assay type: cell-based; conditions: Pseudomonas aeruginosa, 503820; P. aeruginosa 503-820; read-out: MIC
In short: as §1

P. aeruginosa 8780 = assay: In vitro antibacterial activity (MIC); assay type: cell-based; conditions: Pseudomonas aeruginosa; P. aeruginosa 8780; read-out: MIC
In short: as §1

K. pneumoniae A = assay: In vitro antibacterial activity (MIC); assay type: cell-based; conditions: Klebsiella pneumoniae, K. pneumoniae A; read-out: MIC
In short: as §1

E. aerogenes 83 = assay: In vitro antibacterial activity (MIC); assay type: cell-based; conditions: Klebsiella aerogenes, 83, E. aerogenes 83; read-out: MIC
In short: as §1

S. marcescens S714 = assay: In vitro antibacterial activity (MIC); assay type: cell-based; conditions: Serratia marcescens, S714, S. marcescens S714; read-out: MIC
In short: as §1

E. cloacae 24 = assay: In vitro antibacterial activity (MIC); assay type: cell-based; conditions: Enterobacter cloacae, 24, E. cloacae 24; read-out: MIC
In short: as §1

S. pyogenes 4 [6] = assay: In vitro antibacterial activity (MIC); assay type: cell-based; conditions: Streptococcus pyogenes, 4, S. pyogenes 4; read-out: MIC
In short: as §1

P. vulgaris 101 = assay: In vitro antibacterial activity (MIC); assay type: cell-based; conditions: Proteus vulgaris, 101, P. vulgaris 101; read-out: MIC
In short: as §1

P. mirabilis 503-1136 = assay: In vitro antibacterial activity (MIC); assay type: cell-based; conditions: Proteus mirabilis, 5031136, P. mirabilis 503-1136; read-out: MIC
In short: as §1

E. coli 4 = assay: In vitro antibacterial activity (MIC); assay type: cell-based; conditions: Escherichia coli, 4, E. coli 4; read-out: MIC
In short: as §1

CC1(C)S[C@@H]2[C@H](N=CN3CCC(CCC4=NCCN4)CC3)C(=O)N2[C@H]1C(=O)O [N, [2S-(2alpha,5alpha,6beta)]-6-[[[4-[4,5-dihydro-1H-imidazol-2-yl)ethyl]-1-piperidinyl]methylene]amino]-3,3-dimethyl-7-oxo-4-thia-1-azabicyclo[3.2.0]heptane-2-carboxylic acid hydrochloride]
ED50 (P. aeruginosa 6799): > 250 mg/kg | ED50 (S. pyogenes 4 [1]): 4.3 mg/kg | ED50 (P. aeruginosa 6720): 20 mg/kg | MIC (E. coli 257 [2]): 0.031 µg/mL | ED50 (S. aureus Smith): 12 mg/kg | ED50 (S. faecalis C1): 62 mg/kg | ED50 (E. coli 257 [3]): < 1 mg/kg | ED50 (K. pneumoniae HE7): > 250 mg/kg | ED50 (S. pneumoniae 6302): 78 mg/kg | ED50 (S. marcescens SM): 19 mg/kg | ED50 (K. pneumoniae 503-990A): 5.5 mg/kg | ED50 (K. pneumoniae R2296): > 250 mg/kg | ED50 (P. aeruginosa 8710 [4]): 50 mg/kg | MIC (E. coli 387-1): 0.016 µg/mL | MIC (S. aureus 1059B): 64 µg/mL | MIC (E. coli 503-455): 1 µg/mL | MIC (S. marcescens S1): 2 µg/mL | MIC (S. marcescens S4): 0.25 µg/mL | MIC (S. schottmuelleri): 0.031 µg/mL | MIC (K. pneumoniae 4964): 32 µg/mL | MIC (E. aerogenes 8): 32 µg/mL | MIC (P. aeruginosa 8710 [5]): 32 µg/mL | MIC (P. mirabilis 190): 0.125 µg/mL | MIC (P. mirabilis 90): 0.125 µg/mL | MIC (P. aeruginosa 503-820): 16 µg/mL | MIC (P. aeruginosa 8780): 128 µg/mL | MIC (K. pneumoniae A): 0.016 µg/mL | MIC (E. aerogenes 83): 8 µg/mL | MIC (S. marcescens S714): 0.125 µg/mL | MIC (E. cloacae 24): 0.125 µg/mL | MIC (S. pyogenes 4 [6]): 1 µg/mL | MIC (P. vulgaris 101): 64 µg/mL | MIC (P. mirabilis 503-1136): 4 µg/mL | MIC (E. coli 4): 0.016 µg/mL
